Laboratory results reported in PubChem BioAssay (NCI).
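Values below derive from 48-hour exposures of cells grown in 96-well plates, with endpoints linearly interpolated between the two concentrations bracketing the appropriate inhibition level. TGI marks complete inhibition of growth.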

Experiments:
Experiment in all cases: growth of human tumour cells (NCI), 48 h
[1] = tested on: 786-0 renal
[2] = tested on: A498 renal
[3] = tested on: A549 NSCLC
[4] = tested on: ACHN renal
[5] = tested on: BT-549 breast
[6] = tested on: CAKI-1 renal
[7] = tested on: CCRF-CEM leukemia
[8] = tested on: COLO 205 colon
[9] = tested on: DU-145 prostate
[10] = tested on: EKVX NSCLC
[11] = tested on: HCC-2998 colon
[12] = tested on: HCT-116 colon
[13] = tested on: HCT-15 colon
[14] = tested on: HOP-62 NSCLC
[15] = tested on: HOP-92 NSCLC
[16] = tested on: HS 578T breast
[17] = tested on: HT29 colon
[18] = tested on: IGROV1 ovarian
[19] = tested on: K-562 leukemia
[20] = tested on: KM12 colon
[21] = tested on: LOX IMVI melanoma
[22] = tested on: M14 melanoma
[23] = tested on: MALME-3M melanoma
[24] = tested on: MCF7 breast
[25] = tested on: MDA-MB-231 breast
[26] = tested on: MDA-MB-435
[27] = tested on: MDA-N
[28] = tested on: MOLT-4 leukemia
[29] = tested on: NCI-H23 lung
[30] = tested on: NCI-H460 lung
[31] = tested on: NCI-H522 lung
[32] = tested on: NCI/ADR-RES ovarian
[33] = tested on: OVCAR-3 ovarian
[34] = tested on: OVCAR-4 ovarian
[35] = tested on: OVCAR-5 ovarian
[36] = tested on: OVCAR-8 ovarian
[37] = tested on: PC-3 prostate
[38] = tested on: RPMI-8226 leukemia
[39] = tested on: RXF 393 renal
[40] = tested on: SF-268 CNS
[41] = tested on: SF-295 CNS
[42] = tested on: SF-539 CNS
[43] = tested on: SK-MEL-2 melanoma
[44] = tested on: SK-MEL-28 melanoma
[45] = tested on: SK-MEL-5 melanoma
[46] = tested on: SK-OV-3 ovarian
[47] = tested on: SN12C renal
[48] = tested on: SNB-19 CNS
[49] = tested on: SNB-75 CNS
[50] = tested on: SR leukemia
[51] = tested on: SW-620 colon
[52] = tested on: T-47D breast
[53] = tested on: TK-10 renal
[54] = tested on: U251 CNS
[55] = tested on: UACC-257 melanoma
[56] = tested on: UACC-62 melanoma
[57] = tested on: UO-31 renal
[58] = tested on: NCI-H226 lung

`Oc1ccc2ccccc2c1CN(Cc1c(O)ccc2ccccc12)C1CCCCC1` showed a TGI [1] of 30.7 µM, a TGI [2] of 71.6 µM and a TGI [3] of 44.4 µM. The TGI [4] was 34.7 µM, the TGI [5] was 42.7 µM and the TGI [6] was 33.6 µM. For the same compound, the TGI [7] was > 100 µM, the TGI [8] was 29.6 µM and the TGI [9] was 42.8 µM. The TGI [10] was 29.7 µM, the TGI [11] was 27.7 µM and the TGI [12] was 29.3 µM. The TGI [13] was 45.4 µM, the TGI [14] was > 100 µM and the TGI [15] was 37.1 µM. It also gave a TGI [16] of 79 µM, a TGI [17] of 39.6 µM and a TGI [18] of 27.6 µM. The TGI [19] was 53.5 µM, the TGI [20] was > 100 µM and the TGI [21] was 28.2 µM. For the same compound, the TGI [22] was 31.3 µM, the TGI [23] was 29.2 µM and the TGI [24] was 29.3 µM. For the same compound, the TGI [25] was 44.1 µM, the TGI [26] was 43.6 µM and the TGI [27] was 28.7 µM. It also gave a TGI [28] of 41.4 µM, a TGI [29] of 31.5 µM and a TGI [30] of 51 µM. It also gave a TGI [31] of 27.1 µM, a TGI [32] of 54.9 µM and a TGI [33] of 41.7 µM. The TGI [34] was 47.1 µM, the TGI [35] was > 100 µM and the TGI [36] was 44.6 µM. For the same compound, the TGI [37] was 38.2 µM, the TGI [38] was 97.2 µM and the TGI [39] was 46.7 µM. For the same compound, the TGI [40] was 27 µM, the TGI [41] was > 100 µM and the TGI [42] was 29.4 µM. The TGI [43] was 67.1 µM, the TGI [44] was 51.9 µM and the TGI [45] was 28.1 µM. The TGI [46] was > 100 µM, the TGI [47] was 28 µM and the TGI [48] was 90.2 µM. For the same compound, the TGI [49] was 50.5 µM, the TGI [50] was 83.9 µM and the TGI [51] was 48.9 µM. For the same compound, the TGI [52] was > 100 µM, the TGI [53] was 36.9 µM and the TGI [54] was 45.2 µM. The TGI [55] was 28.7 µM, the TGI [56] was 32.9 µM and the TGI [57] was 38.1 µM.

For `O=c1[nH]c(=O)n(C2CC(O)C(CO)O2)c2nc3cc4ccccc4cc3nc12` (centres undefined), the TGI [1] was > 100 µM, the TGI [2] was > 100 µM and the TGI [3] was > 100 µM. For the same compound, the TGI [4] was > 100 µM, the TGI [5] was > 100 µM and the TGI [6] was > 100 µM. For the same compound, the TGI [7] was > 100 µM, the TGI [8] was > 100 µM and the TGI [9] was > 100 µM. The TGI [10] was > 100 µM, the TGI [11] was > 100 µM and the TGI [12] was > 100 µM. For the same compound, the TGI [13] was > 100 µM, the TGI [14] was > 100 µM and the TGI [15] was > 100 µM. For the same compound, the TGI [16] was > 100 µM, the TGI [18] was > 100 µM and the TGI [19] was > 100 µM. For the same compound, the TGI [20] was > 100 µM, the TGI [21] was > 100 µM and the TGI [22] was > 100 µM. For the same compound, the TGI [23] was > 100 µM, the TGI [24] was > 100 µM and the TGI [25] was > 100 µM. For the same compound, the TGI [26] was > 100 µM, the TGI [27] was > 100 µM and the TGI [28] was > 100 µM. The TGI [58] was > 100 µM, the TGI [29] was > 100 µM and the TGI [30] was > 100 µM. For the same compound, the TGI [31] was > 100 µM, the TGI [32] was > 100 µM and the TGI [33] was > 100 µM. The TGI [34] was > 100 µM, the TGI [35] was > 100 µM and the TGI [36] was > 100 µM. The TGI [37] was > 100 µM, the TGI [38] was > 100 µM and the TGI [39] was > 100 µM. For the same compound, the TGI [40] was > 100 µM, the TGI [41] was > 100 µM and the TGI [42] was > 100 µM. For the same compound, the TGI [43] was > 100 µM, the TGI [44] was > 100 µM and the TGI [45] was > 100 µM. The TGI [46] was > 100 µM, the TGI [47] was > 100 µM and the TGI [48] was > 100 µM. For the same compound, the TGI [49] was > 100 µM, the TGI [50] was > 100 µM and the TGI [51] was > 100 µM. For the same compound, the TGI [52] was > 100 µM, the TGI [53] was > 100 µM and the TGI [54] was > 100 µM. The TGI [55] was > 100 µM, the TGI [56] was > 100 µM and the TGI [57] was > 100 µM.
